From the supplement of paper PMC13380429

Columns and labels:
Conditions in all cases: 72 h
[1] = system: Caco-2; assay: cell viability relative to DMSO; higher = less toxic
[2] = system: Calu-3; assay: as above
[3] = system: HepG2; assay: as above
[4] = system: U2OS; assay: as above
[5] = system: Vero E6; assay: as above
[6] = system: Caco-2; assay: relative viability EC50 (midpoint between 100% and the lowest measured viability); higher = less toxic
[7] = system: Calu-3; assay: as above
[8] = system: HepG2; assay: as above
[9] = system: U2OS; assay: as above
[10] = system: Vero E6; assay: as above
[11] = system: Caco-2; assay: drug sensitivity score (DSS) for viability; higher = more toxic; extreme values may be limits of the assay
[12] = system: Calu-3; assay: as above
[13] = system: HepG2; assay: as above
[14] = system: U2OS; assay: as above
[15] = system: Vero E6; assay: as above

CNC(=O)[C@@H](c1ccccc1)N1CCc2cc(OC)c(OC)cc2[C@@H]1CCc1ccc(C(F)(F)F)cc1 [almorexant]
cell viability ([1]; 1 nM): 92.1%
cell viability ([1]; 10 nM): 99.3%
cell viability ([1]; 100 nM): 96.1%
cell viability ([1]; 1000 nM): 108%
cell viability ([1]; 10000 nM): 76%
cell viability ([2]; 1 nM): 94.3%
cell viability ([2]; 10 nM): 91.6%
cell viability ([2]; 100 nM): 94.4%
cell viability ([2]; 1000 nM): 95.9%
cell viability ([2]; 10000 nM): 98.4%
cell viability ([3]; 1 nM): 102%
cell viability ([3]; 10 nM): 103%
cell viability ([3]; 100 nM): 99.5%
cell viability ([3]; 1000 nM): 94.2%
cell viability ([3]; 10000 nM): 94.1%
cell viability ([4]; 1 nM): 94.7%
cell viability ([4]; 10 nM): 104%
cell viability ([4]; 100 nM): 91.2%
cell viability ([4]; 1000 nM): 99.4%
cell viability ([4]; 10000 nM): 92.6%
cell viability ([5]; 1 nM): 97.4%
cell viability ([5]; 10 nM): 93%
cell viability ([5]; 100 nM): 95.4%
cell viability ([5]; 1000 nM): 92.3%
cell viability ([5]; 10000 nM): 109%
relative viability EC50 [6]: > 10 µM
relative viability EC50 [7]: > 10 µM
relative viability EC50 [8]: > 10 µM
relative viability EC50 [9]: > 10 µM
relative viability EC50 [10]: > 10 µM
drug sensitivity score [11]: 0.6
drug sensitivity score [12]: 0
drug sensitivity score [13]: 0
drug sensitivity score [14]: 0
drug sensitivity score [15]: 0

COc1cc(NS(C)(=O)=O)ccc1Nc1c2ccccc2nc2ccccc12 [amsacrine]
cell viability ([1]; 1 nM): 101%
cell viability ([1]; 10 nM): 90.9%
cell viability ([1]; 100 nM): 97.3%
cell viability ([1]; 1000 nM): 91.6%
cell viability ([1]; 10000 nM): 14.3%
cell viability ([2]; 1 nM): 105%
cell viability ([2]; 10 nM): 93.7%
cell viability ([2]; 100 nM): 80.3%
cell viability ([2]; 1000 nM): 61.5%
cell viability ([2]; 10000 nM): 12.3%
cell viability ([3]; 1 nM): 87.4%
cell viability ([3]; 10 nM): 89.9%
cell viability ([3]; 100 nM): 78.5%
cell viability ([3]; 1000 nM): 48.8%
cell viability ([3]; 10000 nM): 29%
cell viability ([4]; 1 nM): 103%
cell viability ([4]; 10 nM): 98.1%
cell viability ([4]; 100 nM): 99.5%
cell viability ([4]; 1000 nM): 96.9%
cell viability ([4]; 10000 nM): 37.2%
cell viability ([5]; 1 nM): 93%
cell viability ([5]; 10 nM): 89.3%
cell viability ([5]; 100 nM): 94.6%
cell viability ([5]; 1000 nM): 65.2%
cell viability ([5]; 10000 nM): 41.7%
relative viability EC50 [6]: 2.35 µM
relative viability EC50 [7]: 0.866 µM
relative viability EC50 [8]: 0.241 µM
relative viability EC50 [9]: 2.79 µM
relative viability EC50 [10]: 0.677 µM
drug sensitivity score [11]: 6.1
drug sensitivity score [12]: 10.3
drug sensitivity score [13]: 12.6
drug sensitivity score [14]: 3.9
drug sensitivity score [15]: 7.4

COc1cc(C(C)=O)ccc1O [apocynin]
cell viability ([1]; 1 nM): 104%
cell viability ([1]; 10 nM): 94.2%
cell viability ([1]; 100 nM): 100%
cell viability ([1]; 1000 nM): 86.8%
cell viability ([1]; 10000 nM): 93.9%
cell viability ([2]; 1 nM): 95.2%
cell viability ([2]; 10 nM): 89.6%
cell viability ([2]; 100 nM): 91.5%
cell viability ([2]; 1000 nM): 89.5%
cell viability ([2]; 10000 nM): 105%
cell viability ([3]; 1 nM): 95.8%
cell viability ([3]; 10 nM): 95.8%
cell viability ([3]; 100 nM): 104%
cell viability ([3]; 1000 nM): 98.8%
cell viability ([3]; 10000 nM): 96.8%
cell viability ([4]; 1 nM): 99.8%
cell viability ([4]; 10 nM): 97.9%
cell viability ([4]; 100 nM): 101%
cell viability ([4]; 1000 nM): 96.2%
cell viability ([4]; 10000 nM): 98.2%
cell viability ([5]; 1 nM): 97.8%
cell viability ([5]; 10 nM): 100%
cell viability ([5]; 100 nM): 96.6%
cell viability ([5]; 1000 nM): 98.8%
cell viability ([5]; 10000 nM): 93.6%
relative viability EC50 [6]: > 10 µM
relative viability EC50 [7]: > 10 µM
relative viability EC50 [8]: > 10 µM
relative viability EC50 [9]: > 10 µM
relative viability EC50 [10]: > 10 µM
drug sensitivity score [11]: 0
drug sensitivity score [12]: 0
drug sensitivity score [13]: 0
drug sensitivity score [14]: 0
drug sensitivity score [15]: 0

CC(C)(C)NCC(O)CSc1nc(-c2ccc(C(N)=O)s2)cs1 (stereo not given) [arotinolol]
cell viability ([1]; 1 nM): 105%
cell viability ([1]; 10 nM): 104%
cell viability ([1]; 100 nM): 90.6%
cell viability ([1]; 1000 nM): 106%
cell viability ([1]; 10000 nM): 107%
cell viability ([2]; 1 nM): 102%
cell viability ([2]; 10 nM): 98.4%
cell viability ([2]; 100 nM): 107%
cell viability ([2]; 1000 nM): 94.1%
cell viability ([2]; 10000 nM): 99.9%
cell viability ([3]; 1 nM): 88.7%
cell viability ([3]; 10 nM): 96.9%
cell viability ([3]; 100 nM): 100%
cell viability ([3]; 1000 nM): 92.8%
cell viability ([3]; 10000 nM): 104%
cell viability ([4]; 1 nM): 96%
cell viability ([4]; 10 nM): 100%
cell viability ([4]; 100 nM): 99.9%
cell viability ([4]; 1000 nM): 102%
cell viability ([4]; 10000 nM): 94.6%
cell viability ([5]; 1 nM): 103%
cell viability ([5]; 10 nM): 98.1%
cell viability ([5]; 100 nM): 106%
cell viability ([5]; 1000 nM): 108%
cell viability ([5]; 10000 nM): 98.4%
relative viability EC50 [6]: > 10 µM
relative viability EC50 [7]: > 10 µM
relative viability EC50 [8]: > 10 µM
relative viability EC50 [9]: > 10 µM
relative viability EC50 [10]: > 10 µM
drug sensitivity score [11]: 0
drug sensitivity score [12]: 0
drug sensitivity score [13]: 0
drug sensitivity score [14]: 0
drug sensitivity score [15]: 0
